The source of these data is patent US6977254B2, “Hydroxy cyclohexenyl phenyl carboxamides tocolytic oxytocin receptor antagonists” (Wyeth, priority 2001, dated 2005).

In one assay the target is T1, human vasopressin V1a receptor subtype (Homo sapiens, UniProt P37288).
T1 construct: host or cells: CHO cells, stably transfected (pZeoSV vector for the Thibonnier line); membranes
T1 sequence (P37288 whole entry): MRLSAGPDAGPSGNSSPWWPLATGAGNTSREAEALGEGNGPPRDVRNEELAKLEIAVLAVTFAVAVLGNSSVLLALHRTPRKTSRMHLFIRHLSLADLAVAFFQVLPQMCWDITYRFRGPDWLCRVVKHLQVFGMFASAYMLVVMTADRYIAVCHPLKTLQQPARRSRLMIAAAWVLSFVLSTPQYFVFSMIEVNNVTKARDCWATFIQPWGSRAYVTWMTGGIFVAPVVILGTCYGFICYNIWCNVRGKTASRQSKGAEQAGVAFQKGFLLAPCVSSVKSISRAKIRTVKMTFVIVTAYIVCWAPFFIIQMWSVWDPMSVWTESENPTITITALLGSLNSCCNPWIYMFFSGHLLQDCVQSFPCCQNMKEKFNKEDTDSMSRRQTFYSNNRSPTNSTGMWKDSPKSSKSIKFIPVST
The assay can be described thus: Vasopressin binding in CHO cell membranes expressing human vasopressin V1a subtype receptors ([3H]Manning ligand). Particulars: 100 nM, value without parentheses. The source says:
Vasopressin Binding in Chinese Hamster Ovary Cell Membranes Expressing Human Vasopressin V1a Subtype Receptors
Chinese hamster ovary cells (CHO cells) stably transfected with the human vasopressin V1a subtype receptors were either obtained from Biosignal Inc., 1744 rue Williams, Montreal, Quebec, Canada or obtained from M. Thibonnier, Case Western Reserve University School of Medicine, Cleveland, Ohio.
A. Passaging and Amplification of Cells:
CHO cells transfected with the human vasopressin V1a subtype receptors obtained from M. Thibonnier (pZeoSV vector) are allowed to grow to confluency (approx. >90%) in T-150 flasks under sterile conditions, in a cell culture medium of F-12 Nutrient Mixture (HAM) with L-glutamine (Gibco Cat. #11765-054) containing 15 mM HEPES (Gibco Cat. #15630-080), 1% antibiotic/antimycotic (add 5 mL 100×, Gibco Cat. #15240-062 per 500 mL F-12), 250 μg/mL Zeocin (add 1.25 mL of 100 mg/mL Invitrogen R-250-01 per 500 mL F-12) and 10% Fetal Bovine Serum (Qualified, heat inactivated, Gibco Cat. #16140-063). The medium is removed by aspiration and the cells are washed with 10 mL of Hank's Balanced Salt solution (Gibco Cat. #14175-095). The salt solution is removed by aspiration and the cells are trypsinized with 5 mL of trypsin-EDTA (0.05% trypsin, 0.53 mM EDTA-4Na, Gibco Cat. #25300-070) for 1 min. The trypsin is removed by aspiration and the cells dislodged by tapping. Cell Culture medium (eg, 30 mL for 1:30 split) is immediately added and mixed well to inactivate trypsin. 1 mL of detached cells is added to new culture flasks containing fresh cell culture medium (eg, into 25 mL per T-150 flask), and mixed gently. The cells are incubated at 37° C. in 5% CO2. The medium is changed at 3 to 4 days interval (or as appropriate). The cells grow to confluency (approx. >75%-95%) within 7-8 days. All steps are done under sterile conditions.
The cells are washed twice gently with Hank's Balanced Salt solution (e.g,. use 10 mL per T-150 flask). The excess is removed and the cells are bathed for 15-30 min. in an enzyme-free Cell Dissociation Buffer (e.g. use 8 mL Hank's Based, Gibco Cat. #13150-016 per T-150 flask) until the cells are loosened. The contents are transferred to centrifuge tubes (50 mL size) kept in ice bath. All subsequent steps are done at 4° C. The tubes are centrifuged at 300×g for 15 min (1380 rpm on SORVAL, Model RT6000D, using rotor for 50 mL tubes). The supernatant is discarded and the cells suspended in homogeneizing buffer(10 mM Tris-HCl containing 0.25 M sucrose and 1 mM EDTA, pH 7.4) ensuring that the volume of the buffer is about ten times the volume of the cell pellet. The cells are pooled into a centrifuge tube (50 mL) and homogenized with Polytron at setting 6 for 10 sec. The homogenate is transferred into a Potter-Elvjehm homogenizer and homogenized with 3 strokes. The homogenate is centrifuged at 1500×g for 10 min at 4° C. (3100 rpm using SORVAL, model RT6000D, using rotor for 50 mL tubes). The pellet is discarded. The supernatant is centrifuged at 100,000×g for 60 min. at 4° C. (Beckman L8-80M ultracentrifuge; spin at 37,500 rpm with rotor type 70 Ti for 50 mL tubes; 38,000 rpm with type 80Ti for 15 mL tubes; or 35,800 rpm with rotor type 45Ti). The supemantant is discarded and the pellet suspended in 3 to 4 mL of Tris buffer (50 mM TRIS-HCl, pH 7.4). The protein content is estimated by the Bradford or Lowry method. The volume of the membrane suspension is adjusted with the membrane buffer (50 mM Tris-HCl containing 0.1% BSA and 0.1 mM PMSF) to give 3.0 mg/mL (or as appropriate) of protein. The membranes are aliquoted and stored at −70° C.
C. Radioligand Binding Assay: […]
`COC(=O)[C@H](CO)NC(=O)c1ccc2n1Cc1ccccc1N(C(=O)c1ccc(C3=CCCCC3)c(C)c1)C2` [Example 11, (2S)-2-{[10-(4-Cyclohex-1-en-1-yl-3-methyl-benzoyl)-10,11-dihydro-5H-pyrrolo[2,1-c][1,4]benzodiazepine-3-carbonyl]-amino}-3-hydroxy-propionic acid methyl ester]: the inhibition at 0.1 µM came to 6%.
Turning to `COc1cc(C2=CCCCC2)c(Cl)cc1C(=O)N1Cc2ccc(C(=O)O)n2Cc2ccccc21` [Example 1G, 10-(5-Chloro-4-cyclohex-1-en-1-yl-2-methoxybenzoyl)-10,11-dihydro-5H-pyrrolo[2,1-c][1,4]benzodiazepine-3-carboxylic acid], the inhibition at 0.1 µM turned out to be 0%.
On to `Cc1cc(C(=O)N2Cc3ccc(C(=O)N4CCN(CCO)CC4)n3Cc3ccccc32)ccc1C1=CCCCC1` [Example 17, {10-[4-(1-Cyclohex-1-en-1-yl)-3-methylbenzoyl]-10,11-dihydro-5H-pyrrolo[2,1-c][1,4]benzodiazepin-3-yl}[4-(2-hydroxyethyl)-1-piperazinyl]methanone], for which the “V1a % inhibition @ 100 nM” value is 31%.
Take `Cc1cc(C(=O)N2Cc3ccc(C(=O)N(CCO)CCO)n3Cc3ccccc32)ccc1C1=CCCc2ccccc21` [Example 16, {10-[4-(3,4-Dihydro-naphthalen-1-yl)-3-methyl-benzoyl]-10,11-dihydro-5H-pyrrolo[2,1-c][1,4]benzodiazepin-3-yl}-3-carboxylic acid bis-(2-hydroxy-ethyl)-amide]: the “V1a % inhibition @ 100 nM” value worked out at 6%.
Same read-out and setting: the same measure for `Cc1cc(C(=O)N2Cc3ccc(C(=O)C(Cl)(Cl)Cl)n3Cc3ccccc32)ccc1C1=CCCCC1` [Example 5D, 2,2,2-Trichloro-1-[10-(4-cyclohex-1-en-1-yl-3-methyl-benzoyl)-10,11-dihydro-5H-pyrrolo[2,1-c][1,4]benzodiazepin-3-yl]-methanone]: 0%.
In the case of `Cc1cc(C(=O)N2Cc3ccc(C(=O)N(C)C[C@@H]4OC(=O)O[C@H]4[C@H](O)[C@H]4COC(=O)O4)n3Cc3ccccc32)ccc1C1=CCCCC1` [Example 7, 10-(4-Cyclohex-1-en-1-yl-3-methylbenzoyl)-N-[((4S,5S)-5-{(R)-hydroxy[(4R)-2-oxo-1,3-dioxolan-4-yl]methyl}-2-oxo-1,3-dioxolan-4-yl)methyl]-N-methyl-10,11-dihydro-5H-pyrrolo[2,1-c][1,4]benzodiazepine-3-carboxamide], the inhibition at 0.1 µM is 62%.
The same measure, in the same setting: as for `Cc1cc(C(=O)N2Cc3ccc(C(=O)O)n3Cc3ccccc32)ccc1C1=CCCc2ccccc21` [Example 15B, 10-[4-(3,4-Dihydro-naphthalen-1-yl)-3-methyl-benzoyl]-10,11-dihydro-5H-pyrrolo[2,1-c][1,4]benzodiazepine-3-carboxylic acid], the figure is -2%; as for `CCOC(=O)[C@H](Cc1ccc(O)cc1)NC(=O)c1ccc2n1Cc1ccccc1N(C(=O)c1ccc(C3=CCCCC3)c(C)c1)C2` [Example 9, (2S)-2-{[10-(4-Cyclohex-1-en-1-yl-3-methyl-benzoyl)-10,11-dihydro-5H-pyrrolo[2,1-c][1,4]benzodiazepine-3-carbonyl]-amino}-3-(4-hydroxy-phenyl)-propionic acid ethyl ester], 6%.
With `Cc1cc(C(=O)N2Cc3ccc(C(=O)N[C@H](CO)C(=O)O)n3Cc3ccccc32)ccc1C1=CCCCC1` [Example 14, (2R)-2-{[10-(4-Cyclohex-1-en-1-yl-3-methyl-benzoyl)-10,11-dihydro-5H-pyrrolo[2,1-c][1,4]benzodiazepine-3-carbonyl]-amino}-3-hydroxy-propionic acid], the inhibition at 0.1 µM came out at 6%.
With `Cc1cc(C(=O)N2Cc3ccc(C(=O)O)n3Cc3ccccc32)ccc1C1=CCCCC1` [Example 5E, 10-(4-Cyclohex-1-en-1-yl-3-methyl-benzoyl)-10,11-dihydro-5H-pyrrolo[2,1-c][1,4]benzodiazepine-3-carboxylic acid], the inhibition at 0.1 µM turned out to be 8%.
`Cc1cc(C(=O)N2Cc3ccc(C(=O)N[C@@H](CO)C(=O)O)n3Cc3ccccc32)ccc1C1=CCCCC1` [Example 13, (2S)-2-{[10-(4-Cyclohex-1-en-1-yl-3-methyl-benzoyl)-10,11-dihydro-5H-pyrrolo[2,1-c][1,4]benzodiazepine-3-carbonyl]-amino}-3-hydroxy-propionic acid]: the inhibition at 0.1 µM came out at 5%.
Same read-out and setting: as for `COC(=O)[C@@H](CO)NC(=O)c1ccc2n1Cc1ccccc1N(C(=O)c1ccc(C3=CCCCC3)c(C)c1)C2` [Example 12, (2R)-2-{[10-(4-Cyclohex-1-en-1-yl-3-methyl-benzoyl)-10,11-dihydro-5H-pyrrolo[2,1-c][1,4]benzodiazepine-3-carbonyl]-amino}-3-hydroxy-propionic acid methyl ester], the figure is 16%.

Still in this assay, the particulars now being: value in parentheses.
Turning to `COc1cc(C2=CCCCC2)c(Cl)cc1C(=O)N1Cc2ccc(C(=O)N(C)C[C@@H]3OC(=O)O[C@H]3[C@H](O)[C@H]3COC(=O)O3)n2Cc2ccccc21` [Example 3, 10-(5-Chloro-4-cyclohex-1-en-1-yl-2-methoxybenzoyl)-N-[((4S,5S)-5-{(R)-hydroxy[(4R)-2-oxo-1,3-dioxolan-4-yl]methyl}-2-oxo-1,3-dioxolan-4-yl)methyl]-N-methyl-10,11-dihydro-5H-pyrrolo[2,1-c][1,4]benzodiazepine-3-carboxamide], the IC50 came to 1460 nM.
For the molecule `Cc1cc(C(=O)N2Cc3ccc(C(=O)N(C)C[C@H](O)[C@@H](O)[C@H](O)[C@H](O)CO)n3Cc3ccccc32)ccc1C1=CCCCC1` [Example 5], the IC50 came to 182 nM.
Take `Cc1cc(C(=O)N2Cc3ccc(C(=O)N(C)C[C@H](O)[C@@H](O)[C@H](O)[C@H](O)CO)n3Cc3ccccc32)ccc1C1=CCCc2ccccc21` [Example 15]: the half-inhibitory concentration (IC50) turned out to be 646 nM.
Consider `COc1cc(C2=CCCCC2)c(Cl)cc1C(=O)N1Cc2ccc(C(=O)N(C)CC(O)CO)n2Cc2ccccc21` (stereo not shown) [Example 4, 10-(5-Chloro-4-cyclohex-1-en-1-yl-2-methoxybenzoyl)-N-(2,3-dihydroxypropyl)-N-methyl-10,11-dihydro-5H-pyrrolo[2,1-c][1,4]benzodiazepine-3-carboxamide], for which the IC50 was 613 nM.
Regarding `COC[C@@H](OC)[C@@H](OC)[C@H](OC)[C@H](CN(C)C(=O)c1ccc2n1Cc1ccccc1N(C(=O)c1cc(Cl)c(C3=CCCCC3)cc1OC)C2)OC` [Example 2, 10-(5-Chloro-4-cyclohex-1-en-1-yl-2-methoxybenzoyl)-N-methyl-N-[(2S,3R,4R,5R)-2,3,4,5,6-pentamethoxyhexyl]-10,11-dihydro-5H-pyrrolo[2,1-c][1,4]benzodiazepine-3-carboxamide], the half-maximal inhibitory concentration (IC50) amounted to 2190 nM.
With `Cc1cc(C(=O)N2Cc3ccc(C(=O)N(C)C[C@H](O)[C@H]4OC(=O)O[C@@H]4[C@H](O)CO)n3Cc3ccccc32)ccc1C1=CCCCC1` [Example 6, 10-(4-Cyclohex-1-en-1-yl-3-methylbenzoyl)-N-((2S)-2-{(4R,5R)-5-[(1R)-1,2-dihydroxyethyl]-2-oxo-1,3-dioxolan-4-yl}-2-hydroxyethyl)-N-methyl-10,11-dihydro-5H-pyrrolo[2,1-c][1,4]benzodiazepine-3-carboxamide], the IC50 came to 62.4 nM.
With `COc1cc(C2=CCCCC2)c(Cl)cc1C(=O)N1Cc2ccc(C(=O)N(C)C[C@H](O)[C@@H](O)[C@H](O)[C@H](O)CO)n2Cc2ccccc21` [Example 1, 1-[[[10-[5-Chloro-4-(1-cyclohex-1-en-1-yl)-2-methoxybenzoyl]-10,11-dihydro-5H-pyrrolo[2,1-c][1,4]benzodiazepin-3-yl]carbonyl]methylamino]-1-deoxy-D-glucitol], the IC50 was determined as 879 nM.
